Consider one compound from ChEMBL document CHEMBL6087437 (J Med Chem, 2025).

Calls of active or inactive are those of the source. The rule behind the calls is not given here.

Data set [1] relates to Ebolavirus. Kind of data set: Binding affinity to Ebolavirus glycoprotein by SPR analysis.
Data set [2] concerns Bundibugyo virus. Kind of data set: Antiviral activity against pseudotyped Bundibugyo ebolavirus expressing glycoprotein infected in human A549 cells assessed as inhibition of viral entry incubated for 48 hrs by Neolite reporter gene assay. In kind it is functional, organism-based. Particulars: A549, 48 h. A general note: A reporter such as luciferase makes a cellular process visible.

The subject of data set [3] is Reston ebolavirus. As to the kind of experiment: Antiviral activity against pseudotyped Reston ebolavirus expressing glycoprotein infected in human A549 cells assessed as inhibition of viral entry incubated for 48 hrs by Neolite reporter gene assay. Particulars: A549, 48 h. In kind it is functional, organism-based.
The subject of data set [4] is Sudan ebolavirus. As to the kind of experiment: Antiviral activity against pseudotyped Sudan ebolavirus expressing glycoprotein infected in human A549 cells assessed as inhibition of viral entry incubated for 48 hrs by Neolite reporter gene assay. In kind it is functional, organism-based. Particulars: A549, 48 h.
Data set [5] has as its system Ebolavirus. Kind of data set: Antiviral activity against wildtype Ebola virus infected in human HeLa cells incubated for 40 hrs by Hoechst 33342 staining based Cytation-1 automated microscopic analysis. Type of data set: functional, organism-based. Particulars: Orthoebolavirus.
Data set [6] relates to Ebolavirus. As to the kind of experiment: Antiviral activity against pseudotyped Ebola virus expressing glycoprotein infected in human A549 cells assessed as inhibition of viral entry incubated for 48 hrs by Neolite reporter gene assay. In kind it is functional, organism-based. The following applies: Orthoebolavirus, A549, 48 h.
The test system of data set [7] is Tai Forest ebolavirus. As to the kind of experiment: Antiviral activity against pseudotyped Tai Forest ebolavirus expressing glycoprotein infected in human A549 cells assessed as inhibition of viral entry incubated for 48 hrs by Neolite reporter gene assay. In kind it is functional, organism-based. The following applies: A549, 48 h.
Data set [8] deals with HeLa. As to the kind of experiment: Cytotoxicity against human HeLa cells by Celltiter-Glo luminescent cell viability assay. Type of data set: toxicity, cell-based.
Data set [9] can be described thus: Selectivity index, ratio of CC50 for human A549 cells to EC50 for pseudotyped Ebola virus expressing glycoprotein infected in human A549 cells. Type of data set: toxicity, cell-based. The following applies: read-out: Ratio CC50/EC50.
Data set [10] deals with Zaire ebolavirus. Kind of data set: Antiviral activity against pseudotyped Zaire ebolavirus expressing glycoprotein infected in human A549 cells assessed as inhibition of viral entry incubated for 48 hrs by Neolite reporter gene assay. In kind it is functional, organism-based. Particulars: A549, 48 h.
Data set [11] relates to Marburgvirus. Kind of data set: Antiviral activity against pseudotyped Marburg virus expressing glycoprotein infected in human A549 cells assessed as inhibition of viral entry incubated for 48 hrs by Neolite reporter gene assay. Type of data set: functional, organism-based. Particulars: Orthomarburgvirus, A549, 48 h.
A short description of data set [12]: Selectivity index, ratio of CC50 for human HeLa cells to EC50 for antiviral activity against wildtype Ebolavirus infected in human HeLa cells. Type of data set: toxicity, cell-based. The following applies: read-out: Ratio CC50/EC50.

For the compound `CC1CCN(c2ccc(NC(=O)c3ccc(CN4CCOCC4)cc3)cc2C(F)(F)F)CC1`, the outcome in data set [1] was Active. Further, the EC50 in data set [2] came to 3670 nM; in [3], 740 nM; in data set [4], 1280 nM; in data set [5], 540 nM; in data set [6], 220 nM; in [7], 170 nM. For the same compound, the EC50 in [10] was 220 nM; in [11], 5280 nM. In addition, the CC50 in [8] worked out at 42700 nM. The results for the selectivity ratio in data set [9] and in data set [12] were 129 and 77, respectively.

A word on the EC50: it is the concentration needed to bring the measured effect to its halfway point. The term CC50 denotes the concentration giving 50% cytotoxicity.
